# From US20260027116A1, “Methods of Treating Chronic Graft-Versus-Host Disease Following Allogeneic Hematopoietic Stem Cell Transplantation” (Kadmon Corporation, LLC, priority 2022, published 2026)
# Test system: patients with cGVHD
# Conditions: Cohort 3 400 mg QD
smiles,measurement,value
"CC(C)NC(=O)COc1cccc(-c2nc(Nc3ccc4[nH]ncc4c3)c3ccccc3n2)c1 [Belumosudil, 2-{3-[4-(1H-indazol-5-ylamino)-2-quinazolinyl]phenoxy}-N-(propan-2-yl) acetamide]",Fungal infection: # Events,0
same,Fungal infection: Affected/At Risk (%),0/21 (0%)
same,Gamma-glutamyltransferase increased: # Events,0
same,Gamma-glutamyltransferase increased: Affected/At Risk (%),0/21 (0%)
same,Gastric ulcer: # Events,0
same,Gastric ulcer: Affected/At Risk (%),0/21 (0%)
same,Gastrooesophageal reflux disease: # Events,2
same,Gastrooesophageal reflux disease: Affected/At Risk (%),2/21 (9.52%)
same,Generalised oedema: # Events,1
same,Generalised oedema: Affected/At Risk (%),1/21 (4.76%)
same,Genital infection fungal: # Events,0
same,Genital infection fungal: Affected/At Risk (%),0/21 (0%)
same,Glaucoma: # Events,0
same,Glucose urine present: # Events,3
same,Glucose urine present: Affected/At Risk (%),1/21 (4.76%)
same,"Grade ≥3 AE, No. (%)",14 (67)
same,"Grade ≥3 ALT/AST increased, No. (%)",0
same,"Grade ≥3 Anemia, No. (%)",0
same,"Grade ≥3 Dyspnea, No. (%)",4 (19)
same,"Grade ≥3 Hyperglycemia, No. (%)",2 (10)
same,"Grade ≥3 Hypoxia, No. (%)",2 (10)
same,"Grade ≥3 Lung infection or pneumonia, No. (%)",2 (10)
same,Graft versus host disease in gastrointestinal tract: # Events,0
same,Graft versus host disease in gastrointestinal tract: Affected/At Risk (%),0/21 (0%)
same,Gynaecomastia: # Events,0
same,Gynaecomastia: Affected/At Risk (%),0/21 (0%)
same,Haematuria: # Events,2
same,Haematuria: Affected/At Risk (%),1/21 (4.76%)
same,Hair growth abnormal: # Events,0
same,Hair growth abnormal: Affected/At Risk (%),0/21 (0%)
same,Headache: # Events,8
same,Headache: Affected/At Risk (%),6/21 (28.57%)
same,Hodgkin's disease recurrent: # Events,0
same,Hodgkin's disease recurrent: Affected/At Risk (%),0/21 (0%)
same,Hordeolum: # Events,1
same,Hordeolum: Affected/At Risk (%),1/21 (4.76%)
same,Hot flush: # Events,0
same,Hot flush: Affected/At Risk (%),0/21 (0%)
same,Hyperglycemia: # Events,8
same,Hyperglycemia: Affected/At Risk (%),3/21 (14.29%)
same,Hyperhidrosis: # Events,1
same,Hyperhidrosis: Affected/At Risk (%),1/21 (4.76%)
same,Hyperkalaemia: # Events,4
same,Hyperkalaemia: Affected/At Risk (%),3/21 (14.29%)
same,Hypertension: # Events,6
same,Hypertension: Affected/At Risk (%),4/21 (19.05%)
same,Hyperthyroidism: # Events,1
same,Hyperthyroidism: Affected/At Risk (%),1/21 (4.76%)
same,Hypertriglyceridaemia: # Events,0
same,Hypertriglyceridaemia: Affected/At Risk (%),0/21 (0%)
same,Hyperuricaemia: # Events,5
same,Hyperuricaemia: Affected/At Risk (%),3/21 (14.29%)
same,Hypoaesthesia: # Events,1
same,Hypoaesthesia: Affected/At Risk (%),1/21 (4.76%)
same,Hypocalcaemia: # Events,1
same,Hypocalcaemia: Affected/At Risk (%),1/21 (4.76%)
same,Hypogonadism: # Events,0
same,Hypogonadism: Affected/At Risk (%),0/21 (0%)
same,Hypokalaemia: # Events,0
same,Hypokalaemia: Affected/At Risk (%),0/21 (0%)
same,Hypomagnesaemia: # Events,1
same,Hypomagnesaemia: Affected/At Risk (%),1/21 (4.76%)
same,Hyponatraemia: # Events,2
same,Hyponatraemia: Affected/At Risk (%),2/21 (9.52%)
same,Hypophosphataemia: # Events,1
same,Hypophosphataemia: Affected/At Risk (%),1/21 (4.76%)
same,Hypothermia: # Events,0
same,Hypothermia: Affected/At Risk (%),0/21 (0%)
same,Hypothyroidism: # Events,4
same,Hypothyroidism: Affected/At Risk (%),3/21 (14.29%)
same,Hypoxia: # Events,3
same,Hypoxia: Affected/At Risk (%),3/21 (14.29%)
same,Impaired healing: # Events,0
same,Impaired healing: Affected/At Risk (%),0/21 (0%)
same,Influenza like illness: # Events,0
same,Influenza like illness: Affected/At Risk (%),0/21 (0%)
same,Influenza: # Events,2
same,Influenza: Affected/At Risk (%),2/21 (9.52%)
same,Insomnia: # Events,3
same,Insomnia: Affected/At Risk (%),3/21 (14.29%)
same,Irritability: # Events,0
same,Irritability: Affected/At Risk (%),0/21 (0%)
same,Joint range of motion decreased: # Events,1
same,Joint range of motion decreased: Affected/At Risk (%),1/21 (4.76%)
same,Lacrimation increased: # Events,0
same,Lacrimation increased: Affected/At Risk (%),0/21 (0%)
same,Leukaemia recurrent: # Events,0
same,Leukaemia recurrent: Affected/At Risk (%),0/21 (0%)
same,Leukocytosis: # Events,1
same,Leukocytosis: Affected/At Risk (%),1/21 (4.76%)
same,Ligament sprain: # Events,0
same,Ligament sprain: Affected/At Risk (%),0/21 (0%)
same,Limb injury: # Events,1
same,Limb injury: Affected/At Risk (%),1/21 (4.76%)
same,Macular degeneration: # Events,0
same,Macular degeneration: Affected/At Risk (%),0/21 (0%)
same,Migraine: # Events,0
same,Migraine: Affected/At Risk (%),0/21 (0%)
same,Muscle spasms: # Events,6
same,Muscle spasms: Affected/At Risk (%),6/21 (28.57%)
same,Muscle spasticity: # Events,1
same,Muscle spasticity: Affected/At Risk (%),1/21 (4.76%)
same,Muscular weakness: # Events,2
same,Muscular weakness: Affected/At Risk (%),2/21 (9.52%)
same,Musculoskeletal chest pain: # Events,1
same,Musculoskeletal chest pain: Affected/At Risk (%),1/21 (4.76%)
same,Myalgia: # Events,3
same,Myalgia: Affected/At Risk (%),3/21 (14.29%)
same,Nail disorder: # Events,0
same,Nail disorder: Affected/At Risk (%),0/21 (0%)
same,Nasal congestion: # Events,1
same,Nasal congestion: Affected/At Risk (%),1/21 (4.76%)
same,Nausea: # Events,12
same,Nausea: Affected/At Risk (%),9/21 (42.86%)
same,Neck pain: # Events,0
same,Neck pain: Affected/At Risk (%),0/21 (0%)
same,Nephrotic syndrome: # Events,0
same,Nephrotic syndrome: Affected/At Risk (%),0/21 (0%)
same,Neuropathy peripheral: # Events,2
same,Neuropathy peripheral: Affected/At Risk (%),1/21 (4.76%)
same,Neutrophil count decreased: # Events,1
same,Neutrophil count decreased: Affected/At Risk (%),1/21 (4.76%)
same,Nocturia: # Events,0
same,Nocturia: Affected/At Risk (%),0/21 (0%)
same,Non-cardiac chest pain: # Events,1
same,Non-cardiac chest pain: Affected/At Risk (%),1/21 (4.76%)
same,Obesity: # Events,0
same,Obesity: Affected/At Risk (%),0/21 (0%)
same,Oedema peripheral: # Events,6
same,Oedema peripheral: Affected/At Risk (%),6/21 (28.57%)
same,Oedema: # Events,0
same,Oedema: Affected/At Risk (%),0/21 (0%)
same,Oesophageal ulcer: # Events,0
same,Oesophageal ulcer: Affected/At Risk (%),0/21 (0%)
same,Oral candidiasis: # Events,0
same,Oral candidiasis: Affected/At Risk (%),0/21 (0%)
same,Oropharyngeal pain: # Events,1
same,Oropharyngeal pain: Affected/At Risk (%),1/21 (4.76%)
same,Orthopnoea: # Events,0
same,Orthopnoea: Affected/At Risk (%),0/21 (0%)
same,Osteonecrosis: # Events,0
same,Osteonecrosis: Affected/At Risk (%),0/21 (0%)
same,Osteopenia: # Events,0
same,Osteopenia: Affected/At Risk (%),0/21 (0%)
same,Osteoporosis: # Events,0
same,Osteoporosis: Affected/At Risk (%),0/21 (0%)
same,Overdose: # Events,0
same,Overdose: Affected/At Risk (%),0/21 (0%)
same,Pain in extremity: # Events,5
same,Pain in extremity: Affected/At Risk (%),4/21 (19.05%)
same,Pain: # Events,1
same,Pain: Affected/At Risk (%),1/21 (4.76%)
same,Palpitations: # Events,1
same,Palpitations: Affected/At Risk (%),1/21 (4.76%)
same,Paraesthesia: # Events,1
same,Paraesthesia: Affected/At Risk (%),1/21 (4.76%)
same,Pericardial effusion: # Events,0
same,Pericardial effusion: Affected/At Risk (%),0/21 (0%)
same,Peripheral coldness: # Events,0
same,Peripheral coldness: Affected/At Risk (%),0/21 (0%)
same,Peripheral sensory neuropathy: # Events,0
same,Peripheral sensory neuropathy: Affected/At Risk (%),0/21 (0%)
same,Phlebitis: # Events,0
same,Phlebitis: Affected/At Risk (%),0/21 (0%)
same,Photophobia: # Events,2
same,Photophobia: Affected/At Risk (%),2/21 (9.52%)
same,Platelet count decreased: # Events,0
same,Platelet count decreased: Affected/At Risk (%),0/21 (0%)
same,Pleural effusion: # Events,1
